Data from EP0463212A1, “Imidazo[2,1-b]thiazole compound anti-ulcer agent containing the same” (NIKKEN CHEMICALS CO., LTD., priority 1990, dated 1992).

Legend:
[1] = test system: aspirin-induced ulcer; assay: Antiulcer activity against aspirin-induced ulcer model; assay type: in vivo, Wistar strain male rats; conditions: 100 mg/kg oral, 30 min before aspirin 200 mg/kg oral; for Ulcer index: stomach excised 7 hours after aspirin, rats fasted 24 hours; for Inhibition rate: versus control group
Method: Antiulcer activity against aspirin-induced ulcer model
A suspension of each test compound in 5% gum arabic aqueous solution was orally given to Wistar strain male rats (at the age of 7 to 8 weeks, weighing 180 to 227 g; 7-8 rats in the group administered with the test compound; 14-16 rats in the control group) fasted for 24 hours at a dose of 100 mg of the test compound/5 ml/kg. Thirty minutes after administration, aspirin was further orally administered at a dose of 200 mg/kg. Seven hours after administration of aspirin, stomach was excised under ethereal anesthesia and spotted and linear erosion and a long diameter of ulcer were microscopically measured to determine an ulcer index and an inhibition rate.
(§1) In the control group, 5% gum arabic aqueous solution was orally administered at a dose of 5 ml/kg.

[2] = test system: water-immersion stress ulcer; assay: Antiulcer activity against water-immersion stress ulcer model; assay type: in vivo, Wistar strain male rats; conditions: 100 mg/kg oral; for Ulcer index: 30 min before water immersion at 22 ± 1°C, stress load for 6 hours; for Inhibition rate: 30 min before water immersion stress for 6 hours, versus control group
Method: Antiulcer activity against water-immersion stress ulcer model
A suspension of each test compound in 5% gum arabic aqueous solution was orally given to Wistar strain male rats (at the age of 7 to 8 weeks, weighing 191 to 238 g; 7-8 rats in the group administered with the test compound; 14-16 rats in the control group) fasted for 24 hours at a dose of 100 mg of the test compound/5 ml/kg. Thirty minutes after administration, the animal was immersed up to the xiphisternum in water bath at 22 ± 1°C using a stress cage made by Tokyo University, Faculty of Pharmacology to apply a stress load for 6 hours. After applying the stress load, the rats had the cervical vertebra dislocated to death. Then, the stomach was excised and, spotted and linear erosion and a long diameter of ulcer were microscopically measured to determine an ulcer index and an inhibition rate.
as §1

[3] = test system: gastric juice secretion; assay: Gastric juice secretion inhibition activity (pyloric ligature); assay type: in vivo, Wistar strain male rats; conditions: 100 mg/kg oral; for Gastric juice (pH) / Free HCℓ / Pepsin output / Total acidity: four hours after; for Free HCℓ: Töpfer reagent; for Pepsin output: casein as substrate; for Total acidity: phenolphthalein reagent; for Gastric juice: gastric juice collected four hours after
Method: Gastric juice secretion inhibition activity
A suspension of each test compound in 5% gum arabic aqueous solution was orally given to Wistar strain male rats (at the age of 7 to 8 weeks, weighing 192 to 241 g; 7-9 rats in the group administered with the test compound; 15 rats in the control group) fasted for 24 hours at a dose of 100 mg of the test compound/5 ml/kg. Thirty minutes after administration (the compounds of Examples 3 and 4) or 60 minutes after administration (the compounds of Examples 1, 2, 5, 6 and 7), pyloric ligature was made under ethereal anesthesia. Four hours after, the stomach was excised under ethereal anesthesia to collect gastric juice. The collected gastric juice was centrifuged (2500 rpm) at 4°C for 10 minutes. After the supernatant was collected, an amount of the gastric juice and its pH were measured using a pH meter. Furthermore, an amount of free hydrochloric acid and the total acidity were measured with Töpfer reagent and phenolphthalein reagent, respectively. Using a part of the gastric juice, pepsin output in the gastric juice was measured using casein as substrate in a manner similar to the method of Anson et al.
as §1

[4] = test system: SLC-ICR or SLC-ddy strain male mice; assay: Acute toxicity; assay type: in vivo; conditions: oral, once, observed for 7 days
Method: A suspension of each test compound in 5% gum arabic aqueous solution was orally given to SLC-ICR or SLC-ddy strain male mice (at the age of 6 to 7 weeks, weighing 26.6 to 33.6 g; 3-8 mice in one group) forcedly once at a dose of 500 mg and 1,000mg of the test compound/5mℓ/kg. For 7 days after the administration, the mice were observed whether they were dead or alive.

[5] = test system: ethanol-induced ulcer; assay: Antiulcer activity against ethanol-induced ulcer model; assay type: in vivo, Wistar strain male rats; conditions: 100 mg/kg oral; for Ulcer index: 30 min before absolute ethanol 5 ml/kg oral, 1 hour after ethanol; for Inhibition rate: versus control group
Method: Antiulcer activity against ethanol-induced ulcer model
A suspension of each test compound in 5% gum arabic aqueous solution was orally given to Wistar strain male rats (at the age of 7 to 8 weeks, weighing 180 to 250 g; 5-9 rats in the group administered with the test compound; 4-9 rats in the control group) fasted for 24 hours at a dose of 100 mg of the test compound/5 ml/kg. Thirty minutes after administration, absolute ethanol was further orally administered at a dose of 5 mℓ/kg. One hour after administration of absolute ethanol, the stomach was excised under ethereal anesthesia and the area of an ulcerated portion (mm²) (using microscope) or the proportion (%) thereof to all area of gastric wall (by computer image analysis) were measured to determine an ulcer index and an inhibition rate.
as §1

[6] = pyloric ligature 60 minutes after administration
[7] = pyloric ligature 30 minutes after administration
[8] = area of ulcerated portion (microscope)
[9] = proportion of ulcerated area to all area of gastric wall (computer image analysis)

SMILES	Ulcer index [1] [mm]	Inhibition rate [1] [%]	Ulcer index [2] [mm]	Inhibition rate [2] [%]	Gastric juice (pH) [3, 6] [pH]	Free HCℓ [3, 6] [mcEq/100g]	Pepsin output [3, 6]	Total acidity [3, 6] [mcEq/100g]	Gastric juice [3, 6] [mℓ/100g]	Mortality rate (No. of death/No. of treated) ([4]; 500 mg/kg)	Mortality rate (No. of death/No. of treated) ([4]; 1000 mg/kg)	Gastric juice (pH) [3, 7] [pH]	Free HCℓ [3, 7] [mEq/l]	Pepsin output [3, 7] [units/hr]	Total acidity [3, 7] [mEq/l]	Gastric juice [3, 7] [mL]	Ulcer index [5, 8]	Inhibition rate ([5]; from ulcer index in mm^2) [%]	Ulcer index [5, 9] [%]	Inhibition rate ([5]; from ulcer index in %) [%]
Cc1nc2scc(C)n2c1CO [Ex. 1, 3,6-dimethyl-5-hydroxymethylimidazo[2,1-b]thiazole]	38.6 ± 7.9	45.6	2.6 ± 0.9	89.0	2.02 ± 0.31	33.9 ± 14.9	12.0 ± 1.6 mg of tyrosine/100g	70.6 ± 17.4	1.12 ± 0.18	0/5	1/5									
CCCCc1sc2nc(C)c(CO)n2c1C [Ex. 2, 2-butyl-3,6-dimethyl-5-hydroxymethylimidazo[2,1-b]thiazole]	52.7 ± 7.8	25.7	13.3 ± 3.9	43.9	1.29 ± 0.08	111.0 ± 36.3	15.9 ± 2.1 mg of tyrosine/100g	147.2 ± 37.4	1.63 ± 0.28	0/5	0/5									
Cc1nc2sccn2c1C(O)c1ccccc1 (stereo not drawn) [Ex. 3, 5-(hydroxy-phenyl)-methyl-6-methyl-imidazo[2,1-b]thiazole]	31.7 ± 5.9	44.8	3.6 ± 2.0	83.3						2/6	3/3	1.66 ± 0.09	35.1 ± 5.0	157.7 ± 17.6	66.6 ± 4.7	6.4 ± 0.7				
CCCC(O)c1c(C)nc2sccn12 (stereo not drawn) [Ex. 4, 5-(1-hydroxybutyl)-6-methylimidazo[2,1-b]-thiazole]	41.3 ± 3.8	38.2	7.4 ± 1.5	68.2						3/8	5/5	2.54 ± 0.27	14.3 ± 7.4	83.1 ± 19.4	68.8 ± 3.6	3.6 ± 0.8	9.2 ± 3.1^** mm^2	94.2		
Cc1nc2sccn2c1C(C)O (stereo not drawn) [Ex. 5, 5-(1-hydroxyethyl)-6-methylimidazo[2,1-b]-thiazole]	29.6 ± 6.8	58.3	19.5 ± 5.8	17.7	1.48 ± 0.11	68.4 ± 19.6	16.6 ± 2.2 mg of tyrosine/100g	117.0 ± 20.8	1.41 ± 0.15	2/5	3/5									
CCCCc1sc2nc(C)c(C(O)CCC)n2c1C (stereo not drawn) [Ex. 6, 2-butyl-3,6-dimethyl-5-(1-hydroxybutyl)-imidazo[2,1-b]thiazole]	37.5 ± 7.4	47.1	18.8 ± 4.7	20.7	1.36 ± 0.17	132.7 ± 33.8	21.6 ± 2.7 mg of tyrosine/100g	172.6 ± 36.5	2.00 ± 0.27	0/5	0/5									
CCCCc1sc2nc(C)c(C(O)c3ccccc3)n2c1C (stereo not drawn) [Ex. 7, 2-butyl-3,6-dimethyl-5-(hydroxy-phenyl)-methylimidazo[2,1-b]-thiazole]	65.1 ± 8.5	8.2	25.5 ± 5.5		1.13 ± 0.03	220.6 ± 32.5	27.2 ± 2.3 mg of tyrosine/100g	260.5 ± 32.9	2.91 ± 0.29	0/5	0/5									
Cc1nc2scc(C)n2c1C(O)c1ccccc1 (stereo not drawn) [Ex. 8, 3,6-dimethyl-5-(hydroxy-phenyl)-methylimidazo[2,1-b]-thiazole]			2.8 ± 0.5	82.0													15.3 ± 8.5^** mm^2	82.2		
Cc1ccc(C(O)c2c(C)nc3sccn23)cc1 (stereo not drawn) [Ex. 9, 5-{hydroxy-(4-methylphenyl)}methyl-6-methylimidazo[2,1-b]thiazole]																			6.8 ± 1.5	59.8
COc1ccc(C(O)c2c(C)nc3sccn23)cc1OC (stereo not drawn) [Ex. 10, 5-{hydroxy-(3,4-dimethoxyphenyl)}-methyl-6-methyl-imidazo[2,1-b]thiazole]																			2.7 ± 0.9	84.0
Cc1nc2sccn2c1C(O)c1ccc(F)cc1 (stereo not drawn) [Ex. 11, 5-{hydroxy-(4-fluorophenyl)}methyl-6-methylimidazo[2,1-b]thiazole]																			1.2 ± 0.5	92.9
Cc1nc2scc(C)n2c1C(O)c1ccc(F)cc1 (stereo not drawn) [Ex. 12, 3,6-dimethyl-5-{hydroxy-(4-fluorophenyl)}-methylimidazo[2,1-b]-thiazole]																			6.3 ± 1.3	62.7
